Tested on: nitrification
Assay: Example 5: soil incubation in bottles with ammonium sulfate, DMPSA, DCD or mixtures, 5 to 15° C., 0 up to 56 days; recovery NH4 (RE/RC), net recovery NH4 (NE/NC), inhibition of NO3 formation (IE/IC, Böhland; Colby)
Parameters: unit not given here
Procedure: 100 g soil is filled into 500 ml plastic bottles (e.g. soil sampled from the field) and is moistened to 50% water holding capacity. The soil is incubated at 20° C. for two weeks to activate the microbial biomass. 1 ml test solution, containing the compositions and mixtures of the invention in the appropriate concentration, or DMSO and 5 to 10 mg nitrogen in the form of ammoniumsulfate-N is added to the soil and everything mixed well. Bottles are capped but loosely to allow air exchange. The bottles are then incubated at 5 to 15° C. for 0 up to 56 days.
For analysis, 300 ml of a 1% K2SO4-solution is added to the bottle containing the soil and shaken for 2 hrs in a horizontal shaker at 150 rpm. Then the whole solution is filtered through a Macherey-Nagel Filter MN 807′/. Ammonium and nitrate content is then analyzed in the filtrate in an autoanalyzer at 550 nm (Merck, AA11).
The Böhland equation is described in Böhland, H., et al. (1973) “Mittel zur Hemmung bzw. Regelung der Nitrifikation von Ammoniumstickstoff in Kulturböden”. DDR-Wirtschaftspatent (Economic patent of the German Democratic Republic) C 05c 169 727. Cited by: Peschke, H. (1985) “Zur Bewertung der inhibierenden Wirkung von Nitrifiziden im Boden”, Zbl. Mikrobiol. 140, pp. 583-588.

“2-(3,4-dimethyl-1H-pyrazol-1-yl)succinic acid and/or 2-(4,5-dimethyl-1H-pyrazol-1-yl)succinic acid [DMPSA]” was tested, and the “IE inhibition of NO3 formation” value (IT5° C., DAT10, % a.i.: DMPSA 0.5, DCD 1, DMPSA + DCD 0.5 + 1 (1:2)) was 18, the “IE inhibition of NO3 formation” value (IT5° C., DAT10, % a.i.: DMPSA 0.5, DCD 3, DMPSA + DCD 0.5 + 3 (1:6)) was 18 and the “IE inhibition of NO3 formation” value (IT5° C., DAT20, % a.i.: DMPSA 0.5, DCD 1, DMPSA + DCD 0.5 + 1 (1:2)) was 20. The “IE inhibition of NO3 formation” value (IT5° C., DAT20, % a.i.: DMPSA 0.5, DCD 3, DMPSA + DCD 0.5 + 3 (1:6)) was 20, the “IE (inhibition of NO3 formation, Böhland)” value (IT5° C., DAT28, % a.i. DMPSA 0.25, DCD 1) was 77 and the “IE (inhibition of NO3 formation, Böhland)” value (IT5° C., DAT28, % a.i. DMPSA 0.25, DCD 3) was 77. For the same substance, the “IE (inhibition of NO3 formation, Böhland)” value (IT5° C., DAT28, % a.i. DMPSA 0.30, DCD 0.05) was 42, the “IE (inhibition of NO3 formation, Böhland)” value (IT5° C., DAT28, % a.i. DMPSA 0.50, DCD 0.08) was 41 and the “IE inhibition of NO3 formation” value (IT5° C., DAT28, % a.i.: DMPSA 0.50, DCD 0.0125, DMPSA + DCD 0.50 + 0.0125 (40:1)) was 44. The “IE inhibition of NO3 formation” value (IT5° C., DAT28, % a.i.: DMPSA 0.50, DCD 0.0143, DMPSA + DCD 0.50 + 0.0143 (35:1)) was 44, the “IE inhibition of NO3 formation” value (IT5° C., DAT28, % a.i.: DMPSA 0.50, DCD 0.0167, DMPSA + DCD 0.50 + 0.0167 (30:1)) was 44 and the “IE inhibition of NO3 formation” value (IT5° C., DAT30, % a.i.: DMPSA 0.5, DCD 1, DMPSA + DCD 0.5 + 1 (1:2)) was 66. The “IE inhibition of NO3 formation” value (IT5° C., DAT30, % a.i.: DMPSA 0.5, DCD 3, DMPSA + DCD 0.5 + 3 (1:6)) was 66, the “IE (inhibition of NO3 formation, Böhland)” value (IT5° C., DAT42, % a.i. DMPSA 0.25, DCD 1) was 75 and the “IE (inhibition of NO3 formation, Böhland)” value (IT5° C., DAT42, % a.i. DMPSA 0.25, DCD 3) was 75. For the same substance, the “IE (inhibition of NO3 formation, Böhland)” value (IT5° C., DAT42, % a.i. DMPSA 0.30, DCD 0.05) was 55, the “IE (inhibition of NO3 formation, Böhland)” value (IT5° C., DAT42, % a.i. DMPSA 0.50, DCD 0.08) was 53 and the “IE (inhibition of NO3 formation, Böhland)” value (IT5° C., DAT56, % a.i. DMPSA 0.25, DCD 1) was 83. For the same substance, the “IE (inhibition of NO3 formation, Böhland)” value (IT5° C., DAT56, % a.i. DMPSA 0.25, DCD 3) was 83, the “IE (inhibition of NO3 formation, Böhland)” value (IT5° C., DAT56, % a.i. DMPSA 0.30, DCD 0.05) was 63 and the “IE inhibition of NO3 formation” value (IT10° C., DAT10, % a.i.: DMPSA 0.5, DCD 1, DMPSA + DCD 0.5 + 1 (1:2)) was 70. For the same substance, the “IE inhibition of NO3 formation” value (IT10° C., DAT10, % a.i.: DMPSA 0.5, DCD 3, DMPSA + DCD 0.5 + 3 (1:6)) was 70, the “IE inhibition of NO3 formation” value (IT10° C., DAT20, % a.i.: DMPSA 0.5, DCD 1, DMPSA + DCD 0.5 + 1 (1:2)) was 7 and the “IE inhibition of NO3 formation” value (IT10° C., DAT20, % a.i.: DMPSA 0.5, DCD 3, DMPSA + DCD 0.5 + 3 (1:6)) was 7. The “IE (inhibition of NO3 formation, Böhland)” value (IT10° C., DAT28, % a.i. DMPSA 0.25, DCD 1) was 59, the “IE (inhibition of NO3 formation, Böhland)” value (IT10° C., DAT28, % a.i. DMPSA 0.25, DCD 3) was 59 and the “IE (inhibition of NO3 formation, Böhland)” value (IT10° C., DAT28, % a.i. DMPSA 0.30, DCD 0.05) was 51. The “IE (inhibition of NO3 formation, Böhland)” value (IT10° C., DAT28, % a.i. DMPSA 0.50, DCD 0.08) was 46, the “IE inhibition of NO3 formation” value (IT10° C., DAT28, % a.i.: DMPSA 0.50, DCD 0.0125, DMPSA + DCD 0.50 + 0.0125 (40:1)) was 62 and the “IE inhibition of NO3 formation” value (IT10° C., DAT28, % a.i.: DMPSA 0.50, DCD 0.0143, DMPSA + DCD 0.50 + 0.0143 (35:1)) was 62. For the same substance, the “IE inhibition of NO3 formation” value (IT10° C., DAT28, % a.i.: DMPSA 0.50, DCD 0.0167, DMPSA + DCD 0.50 + 0.0167 (30:1)) was 62, the “IE inhibition of NO3 formation” value (IT10° C., DAT30, % a.i.: DMPSA 0.5, DCD 1, DMPSA + DCD 0.5 + 1 (1:2)) was 79 and the “IE inhibition of NO3 formation” value (IT10° C., DAT30, % a.i.: DMPSA 0.5, DCD 3, DMPSA + DCD 0.5 + 3 (1:6)) was 79.

Source: patent US20210371351A1, “MIXTURES COMPRISING AT LEAST TWO DIFFERENT NITRIFICATION INHIBITORS SELECTED FROM 2-(3,4-DIMETHYL-1H-PYRAZOL-1-YL)SUCCINIC ACID (DMPSA), 3,4-DIMETHYL PYRAZOLIUM GLYCOLATE (DMPG) AND OTHER COMPOUNDS” (BASF SE, priority 2017, published 2021)
